Measured values as given in US20230077155A1, “TETRAHYDROISOQUINOLINE COMPOUND AS POTASSIUM CHANNEL MODULATOR AND PREPARATION AND APPLICATION THEREOF” (Shanghai Zhimeng Biopharma, Inc., priority 2020, published 2023).

Assays:
[1] = target: T1, KCNQ2 potassium channel (CHO-KCNQ2 cells) (Homo sapiens, UniProt O43526); test: Potassium ion channel opener activity test (FDSS/μCELL detection, FluxOR thallium flux); format: cell-based; conditions: for Maximum agonist rate (%): highest test concentration 100 μM
T1 construct: expressed in transfected cells; host or cells: CHO cells stably expressing KCNQ2, kept under G418 selection
T1 sequence (O43526 whole entry): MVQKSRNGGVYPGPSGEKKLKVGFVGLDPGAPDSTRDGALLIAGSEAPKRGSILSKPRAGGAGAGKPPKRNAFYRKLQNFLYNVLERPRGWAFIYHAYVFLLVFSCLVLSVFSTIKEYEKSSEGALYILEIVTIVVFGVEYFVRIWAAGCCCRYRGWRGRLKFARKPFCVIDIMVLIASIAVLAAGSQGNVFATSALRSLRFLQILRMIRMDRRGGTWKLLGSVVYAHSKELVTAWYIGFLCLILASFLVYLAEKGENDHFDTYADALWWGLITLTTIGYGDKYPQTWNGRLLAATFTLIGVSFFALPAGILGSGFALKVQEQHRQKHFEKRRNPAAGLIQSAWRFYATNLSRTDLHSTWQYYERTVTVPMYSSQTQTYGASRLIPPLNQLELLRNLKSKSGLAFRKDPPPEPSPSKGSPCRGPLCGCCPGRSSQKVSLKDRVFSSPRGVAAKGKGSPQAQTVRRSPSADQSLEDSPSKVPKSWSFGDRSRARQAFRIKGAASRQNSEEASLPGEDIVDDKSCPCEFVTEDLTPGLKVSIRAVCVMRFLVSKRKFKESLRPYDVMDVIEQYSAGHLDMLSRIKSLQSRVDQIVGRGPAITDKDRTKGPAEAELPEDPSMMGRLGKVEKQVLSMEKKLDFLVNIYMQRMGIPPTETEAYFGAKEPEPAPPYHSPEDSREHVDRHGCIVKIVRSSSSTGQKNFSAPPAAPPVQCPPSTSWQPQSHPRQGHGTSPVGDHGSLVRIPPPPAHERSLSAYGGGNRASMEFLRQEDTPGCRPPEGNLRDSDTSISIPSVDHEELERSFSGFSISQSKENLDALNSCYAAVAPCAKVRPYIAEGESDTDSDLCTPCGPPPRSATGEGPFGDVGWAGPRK
Method: Potassium Ion Channel Opener Activity Test (FDSS/μCELL Detection)
1.1 Experimental procedure
Cell preparation: CHO-KCNQ2 cells were cultured in a 175 cm^2 culture flask, and when the cell density grew to 60-80%, the culture medium was removed, washed with 7 mL PBS (Phosphate Buffered Saline) once, then 3 mL 0.25% Trypsin was added to digest. After the digestion was completed, 7 mL culture medium (90% DMEM/F12+10% FBS±500 μg/mL G418) was added to neutralize, centrifugated for 3 minutes at 800 rpm. The supernatant was aspirated, then 5 mL culture medium was added to resuspend, and then the cells were counted.
Cell plating: according to the results of cell counting, the density was adjusted to 3×10^4 cells/well. After standing at room temperature for 30 minutes, the plate was placed in a 37° C. CO2 incubator and incubated overnight for 16-18 hours. The cell density reached about 80%.
Fluorescent dye incubation: the cell culture medium was discarded, 80 μL/well loading buffer was added, and incubated in the dark at room temperature for 60 minutes. Compound incubation: the loading buffer was discarded, 80 μL/well prepared compound solution was added, and incubated in the dark at room temperature for 20 minutes.
Fluorescence data collection: FDSS/μCELL instrument was used for real-time fluorescence signal recording with excitation wavelength at 480 nm and emission wavelength at 540 nm, recorded 1 time per second, and 20 μL/well stimulation buffer was started to add after recording for 10 seconds for baseline, and then continued to record until the end of 180 seconds.
The above buffer come from a commercially available kit named FluxOR potassium ion channel assay.
20 mM DMSO compound mother liquor was prepared, 10 μL of 20 mM compound mother liquor was took into 20 μL DMSO solution, serially diluted 3 times to 8 intermediate concentrations; then the intermediate concentrations of the compound was took out and added to the test buffer, diluted for 200 times to get the final concentration to be tested, 80 μL was took out and added to the test plate.
The highest test concentration was 100 μM, followed by […], 33.33, 11.11, 3.70, 1.23, 0.41, 0.137, 0.045 μM, total 8 concentrations. Each concentration set 3 duplicate wells.
This concentration of DMSO has no effect on the KCNQ2 potassium channel.
Experimental data was analyzed by Excel 2007 and GraphPad Prism 5.0 software, and the ratio of 180 seconds was calculated to calculate the agonism effect. The agonism effect of the compound was calculated by the following formula: […]
Reagent: FluxORTM Detection Kit (Invitrogen, Cat #F0017)
The experimental data in the report must meet the following criteria: Z′ Factor>0.5
2. Results: See Table 1, wherein the smaller the EC50 is, the higher the activity of the corresponding compound is.

[2] = Brain-blood ratio study in mice after single oral administration; format: in vivo; conditions: mouse, brain and plasma, male ICR mice, single oral 10 mg/kg, read-out: Cerebral blood ratio; for Kp at 2 h: time point 2 h; for Kp at 4 h: time point 4 h
Method: Brain-blood ratio study: 6 healthy male ICR mice (body weight range 18-22 g) were taken and divided into 2 groups and 3 mice/group. After fasting overnight, the compound to be tested (10 mg/kg) was administrated orally respectively. Blood was taken through cardiac puncture at time points 2 and 4 hours, at least 0.5 mL of whole blood was collected to EDTA-K2 anticoagulant tube. Plasma was centrifuged (6000 rpm, 8 minutes, 4° C.) within half an hour and frozen at −20° C. for later use. At the same time, the brain tissue was collected, rinsed with normal saline, then sucked to dryness with absorbent paper, weighed, and frozen at −20° C. for later use.
The cerebral blood ratio is very important to nerve drugs, and it can be seen from Table 3 that the compounds of the present invention have excellent cerebral blood ratio, which will bring better drug efficacy and excellent safety. By comparing the cerebral blood ratios of compound A, compound 1, compound B and compound J, it can be seen that after the tert-butyl of compound A or compound B has been changed into […]

[3] = Pharmacokinetics of mice, single intravenous and oral administration, plasma; format: in vivo; conditions: male ICR mice; for F: gavage 10 mg/kg vs intravenous; for AUC(0-inf) / AUC(0-t) / Cmax / Tmax / half-life: mouse, plasma
Method: Study on Pharmacokinetics of Mice
1) Research purposes: In order to obtain the pharmacokinetic characteristics and blood-brain barrier of the tested compound in male ICR mice
Six healthy male ICR mice (body weight range 18-22 g) were taken and divided into 2 groups and 3 mice/group. After fasting overnight (only oral administration group), […], blood was collected by jugular vein puncture at time points 0.083 (IV only), 0.25, 0.5, 1, 2, 4, 6 (PO only), 8 and 24 hours, and at least 0.3 mL of whole blood was collected to EDTA-K2 anticoagulant tube. Plasma was centrifuged (6000 rpm, 8 minutes, 4° C.) within half an hour and frozen at −20° C. for later use.
(§1) Experimental results: According to the blood drug concentration data obtained, the non-compartmental model of WinNonlin® 7.0 software (Pharsight, USA) was used to calculate the pharmacokinetic parameters after administration.

[4] = Pharmacokinetics of rats, single intravenous and oral administration, plasma; format: in vivo; conditions: male SD rats; for AUC(0-inf) / AUC(0-t) / Cmax / Tmax / half-life: rat, plasma
Method: Study on Pharmacokinetics of Rats
1) Research purpose: To obtain the pharmacokinetic characteristics of the compounds to be tested in male SD rats.
Pharmacokinetic study: 6 healthy male SD rats (SPF grade) were divided into 2 groups and 3 rats/group. After fasting overnight (only oral administration group), compound A was administrated 0.3 mg/kg intravenously and 5 mg/kg orally, blood was collected by jugular vein puncture at time points 0.083 (IV only), 0.25, 0.5, 1, 2, 4, 6 (PO only), 8 and 24 hours, and at least 0.3 mL of whole blood was collected to EDTA-K2 anticoagulant tube. Plasma was centrifuged (6000 rmp, 8 minutes, 4° C.) within half an hour and frozen at −20° C. for later use.
as §1

[5] = intravenous 1 mg/kg (footnote *)

| SMILES | EC50 [1] | Maximum agonist rate (%) [1] | Kp at 2 h [2] | Kp at 4 h [2] | F [3] | AUC(0-inf) ([3]; po, gavage 10 mg/kg) | AUC(0-t) ([3]; po, gavage 10 mg/kg) | Cmax ([3]; po, gavage 10 mg/kg) | Tmax ([3]; po, gavage 10 mg/kg) | half-life ([3]; po, gavage 10 mg/kg) | also measured |
| --- | --- | --- | --- | --- | --- | --- | --- | --- | --- | --- | --- |
| Cc1cc2c(c(C)c1NC(=O)CC1(C(F)(F)F)CC1)CCN(c1ccc(F)cc1)C2 [Compound A6] | 290 nM | 17.08% |  |  |  |  |  |  |  |  |  |
| Cc1cc2c(c(C)c1NC(=O)CC1(C)CC1)CCN(c1ccc(C(F)(F)F)cc1)C2 [Compound P] | 34 nM | 38.22% | 6.4 | 5.96 | 83.77% | 30900 ng·h/mL | 5990 ng·h/mL | 315 ng/mL | 520 min | 84.3 h | AUC(0-inf) ([3]; intravenous 0.5 mg/kg): 383 ng·h/mL; AUC(0-t) ([3]; intravenous 0.5 mg/kg): 357 ng·h/mL; Cmax ([3]; intravenous 0.5 mg/kg): 382 ng/mL; Tmax ([3]; intravenous 0.5 mg/kg): 4.8 min; half-life ([3]; intravenous 0.5 mg/kg): 2.67 h |
| [2H]C1([2H])c2cc(C)c(NC(=O)CC3(C)CC3)c(C)c2CCN1c1ccc(C(F)(F)F)cc1 [Compound A3] | 210 nM | 36.16% |  |  |  |  |  |  |  |  |  |
| Cc1cc2c(c(C)c1NC(=O)CC1(C)CC1)CCCN(c1ccc(F)cc1)C2 [Compound A2] | 130 nM | 44.53% |  |  |  |  |  |  |  |  |  |
| Cc1cc2c(c(C)c1NC(=O)CC1(C)CC1)CCN(c1ccc(C#N)cc1)C2 [Compound O] | 780 nM | 29.43% |  |  |  |  |  |  |  |  |  |
| Cc1cc2c(c(C)c1NC(=O)CC1(C)CC1)CCN(c1ccc(F)cc1)C2 [Compound I] | 440 nM | 38.3% | 6 | 5.8 | 24.6% | 539 ng·h/mL | 528 ng·h/mL | 192 ng/mL | 19.8 min | 3.86 h | F ([4]; gavage 5 mg/kg vs intravenous 0.3 mg/kg): 30.11%; AUC(0-inf) ([4]; po, gavage 5 mg/kg): 855 ng·h/mL; AUC(0-t) ([4]; po, gavage 5 mg/kg): 822 ng·h/mL; Cmax ([4]; po, gavage 5 mg/kg): 221 ng/mL; Tmax ([4]; po, gavage 5 mg/kg): 30 min; half-life ([4]; po, gavage 5 mg/kg): 375 min; AUC(0-inf) ([4]; intravenous 0.3 mg/kg): 166 ng·h/mL; AUC(0-t) ([4]; intravenous 0.3 mg/kg): 164 ng·h/mL; Cmax ([4]; intravenous 0.3 mg/kg): 345 ng/mL; Tmax ([4]; intravenous 0.3 mg/kg): 4.8 min; half-life ([4]; intravenous 0.3 mg/kg): 104 min; AUC(0-inf) ([3]; intravenous 0.5 mg/kg): 108 ng·h/mL; AUC(0-t) ([3]; intravenous 0.5 mg/kg): 107 ng·h/mL; Cmax ([3]; intravenous 0.5 mg/kg): 299 ng/mL; Tmax ([3]; intravenous 0.5 mg/kg): 4.8 min; half-life ([3]; intravenous 0.5 mg/kg): 0.86 h |

Now from value to compound, other results behind:

| EC50 [1] | Maximum agonist rate (%) [1] | Kp at 2 h [2] | Kp at 4 h [2] | F [3] | AUC(0-inf) ([3]; po, gavage 10 mg/kg) | AUC(0-t) ([3]; po, gavage 10 mg/kg) | Cmax ([3]; po, gavage 10 mg/kg) | Tmax ([3]; po, gavage 10 mg/kg) | half-life ([3]; po, gavage 10 mg/kg) | SMILES | also measured |
| --- | --- | --- | --- | --- | --- | --- | --- | --- | --- | --- | --- |
| 340 nM | 45.76% |  |  |  |  |  |  |  |  | Cc1cc2c(c(C)c1NC(=O)CC1(C)CC1)CCN(c1ccccc1)C2 [Compound V] |  |
| 94 nM | 48.65% |  |  |  |  |  |  |  |  | Cc1cc2c(c(C)c1NC(=O)CC1(C)CC1)CCN(c1cccc(F)c1)C2 [Compound Z] |  |
| 450 nM | 29.51% |  |  |  |  |  |  |  |  | C#Cc1ccc(N2CCc3c(cc(C)c(NC(=O)CC(C)(C)C)c3C)C2)cc1 [Compound D] |  |
|  |  | 4.1 | 3.2 | 19.18% | 703 ng·h/mL | 693 ng·h/mL | 374 ng/mL | 15 min | 1.81 h | Cc1cc2c(c(C)c1NC(=O)CC1(C)CC1)CCN(c1ccc(F)cc1F)C2 [Compound J] | AUC(0-inf) [3, 5]: 366 ng·h/mL; AUC(0-t) [3, 5]: 361 ng·h/mL; Cmax [3, 5]: 942 ng/mL; Tmax [3, 5]: 4.8 min; half-life [3, 5]: 0.88 h |
